The text below walks through data of patent US6365634B1, “Naturally occurring compounds and their derivatives as cyclooxygenase 2 and/or 5-lipoxygenase inhibitors” (C-P Technology Limited Partnership, priority 1997, dated 2002).

One assay has as its target T1, human recombinant COX II (Homo sapiens, UniProt P35354).
T1 construct: purchased Oxford Chemical
T1 sequence (P35354 18-604): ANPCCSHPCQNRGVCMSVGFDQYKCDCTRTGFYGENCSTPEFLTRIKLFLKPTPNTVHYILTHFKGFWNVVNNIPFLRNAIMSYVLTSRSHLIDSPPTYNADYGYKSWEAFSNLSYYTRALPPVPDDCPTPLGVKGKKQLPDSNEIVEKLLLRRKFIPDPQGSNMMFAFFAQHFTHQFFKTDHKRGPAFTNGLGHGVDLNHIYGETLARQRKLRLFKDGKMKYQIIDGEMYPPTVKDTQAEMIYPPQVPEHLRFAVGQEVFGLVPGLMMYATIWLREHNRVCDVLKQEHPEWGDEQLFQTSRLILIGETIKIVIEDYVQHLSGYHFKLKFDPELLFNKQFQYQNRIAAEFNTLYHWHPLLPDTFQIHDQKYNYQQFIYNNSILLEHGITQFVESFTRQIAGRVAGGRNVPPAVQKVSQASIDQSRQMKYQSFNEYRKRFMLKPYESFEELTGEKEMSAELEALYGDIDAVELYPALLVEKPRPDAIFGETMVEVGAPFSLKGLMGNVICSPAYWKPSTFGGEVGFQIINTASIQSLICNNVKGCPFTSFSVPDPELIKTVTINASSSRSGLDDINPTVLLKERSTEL
In words: COX II biochemical assay (3H-arachidonic acid conversion, TLC quantitation).

The target in assay [1] is T2, rabbit reticulocyte 15-LO (Oryctolagus cuniculus, UniProt P12530).
T2 construct: 24.5 units of a rabbit reticulocyte 15-LO preparation; tissue Oxford Biochemicals; host or cells: rabbit reticulocytes
T2 sequence (P12530 1-663): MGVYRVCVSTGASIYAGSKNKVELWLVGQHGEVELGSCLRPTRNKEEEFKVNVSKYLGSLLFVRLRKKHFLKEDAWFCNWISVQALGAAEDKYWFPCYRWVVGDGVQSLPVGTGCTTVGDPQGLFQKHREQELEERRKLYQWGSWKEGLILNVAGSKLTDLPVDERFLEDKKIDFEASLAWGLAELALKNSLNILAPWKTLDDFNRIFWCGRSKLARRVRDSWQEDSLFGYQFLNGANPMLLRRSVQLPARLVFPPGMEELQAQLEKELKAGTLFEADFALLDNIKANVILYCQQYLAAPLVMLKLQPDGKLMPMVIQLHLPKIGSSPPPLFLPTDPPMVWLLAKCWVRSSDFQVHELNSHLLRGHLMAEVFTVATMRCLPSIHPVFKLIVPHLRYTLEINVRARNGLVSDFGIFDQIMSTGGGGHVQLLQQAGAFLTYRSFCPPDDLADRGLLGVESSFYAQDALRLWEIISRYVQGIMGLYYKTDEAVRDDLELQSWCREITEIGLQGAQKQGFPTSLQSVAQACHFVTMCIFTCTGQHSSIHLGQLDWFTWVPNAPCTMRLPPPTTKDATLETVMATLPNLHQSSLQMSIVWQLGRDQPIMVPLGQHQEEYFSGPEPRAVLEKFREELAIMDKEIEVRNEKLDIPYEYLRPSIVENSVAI
The experiment in a line: 15-LO biochemical assay (15-HETE formation, TLC quantitation). The note with it: for Percent Inhibition of 15-LO: negative = increased activity. As to the method:
The inhibitory activity of dehydroabietic acid methyl ester was assessed by performing biochemical assays that utilized 1) human recombinant COX II, 2) ovine COX I, and 3) rabbit reticulocyte 15-LO. In all biochemical assays dehydroabietic acid methyl ester and inhibitory control compounds were used at a final concentration of […]. The COX I and II biochemical assays have been previously described in this document (see COX I and II Assays Used to Test X-8 Fractions and Purified Compounds, Example 3). The 15-LO assay was done using a modified version of a previously reported method (Corey, E. J., Shih, C., and Cashman, J. R. (1983) Proc. Natl. Acad. Sci. v80, p3,581; Sigal, E., Grunberger, D., Cashman, J. R., Craik, C. S., Caughey, G. H., and Nadel, J. A. (1988) Biochem. Biophys. Res Comm. v150(1), p376). Briefly, 24.5 units of a rabbit reticulocyte 15-LO preparation (corresponding to 7 ug total protein)(Oxford Biochemicals) was placed in potassium phosphate buffer (10 mM, pH 6.0). Dehydroabietic acid methyl ester was added to give a final concentration of 250 uM. The reaction was initiated by the addition of ^3H-AA (50 uM final concentration) and maintained at 37° C., for 5 min. The reaction was stopped by the addition of ice-cold methanol containing NaCNBH3 (to reduce peroxides). A portion of each reaction solution was then separated via TLC (250 μm PK6F 60 Å silica gel preparative TLC plate, Whatman), co-spotted with AA and 15-HETE (a metabolic product of 15-LO) and developed in hexane/ether/acetic acid (50:50:1) to separate 15-HETE from AA (Rf=0.29 and 0.5, respectively). Bands on the TLC plates were then visualized by I2 and scraped for quantitation. As with the COX I and II assays, percent inhibition was calculated based on a comparison between incubations performed in the presence and absence of dehydroabietic acid methyl ester (see “Fractionation and Bioassay Analysis of Fractions Derived from Extract-8” above).

Assay [2] relates to human keratinocyte LTB4 production. The experiment in a line: Cell-based 5-LO assay: LTB4 production by cultured human keratinocytes (enzyme immunoassay). The following applies: 5, 1.0, 0.2 and 0.04 uM, 24 hours, high calcium medium. The text has this:
In addition to assessing the effect of dehydroabietic acid methyl ester on the production of PGE2 by human keratinocytes, the human keratinocyte culture system was also used to assess for the inhibition of LTB4 production. Keratinocytes have not been used as extensively as other cell types for 5-LO studies, however, human keratinocytes produce appreciable amounts of LTB4 and production of this eicosanoid by cultured keratinocytes is inhibited by known inhibitors of 5-LO (see FIG. 11). To assess for inhibition of LTB4 production, human keratinocytes were cultured as described above. Following introduction of the high calcium media, the identical dilution series of dehydroabietic acid methyl ester as described above in the PGE2 study was added to duplicate wells of keratinocytes. Twenty-four hours later culture media samples were removed from each well and the amount of LTB4 in each sample determined using an enzyme immunoassay specific for LTB4 (Cayman Chemical). As was done with the PGE2 assay described above, the percent inhibition was calculated based on a comparison between vehicle treated control cultures and cultures treated with dehydroabietic acid methyl ester or Rev 5901 (a specific 5-LO inhibitor; Cayman Chemical).

Procedure for human recombinant COX II: Two units of recombinant COX II enzyme (corresponding to 0.8 ug total protein) was added followed by 5 uL aliquots of the peat bog extracts yielding a final concentration of the peat extracts of 25 ug/ml. All samples were run in duplicate. […] Reactions were initiated by the addition of ^3H-arachidonic acid (DuPont-NEN) at a final concentration of 50 uM. The reactions were maintained for 5 minutes at 37° C. and stopped by the addition of ice-cold methanol/acetic acid (10:1 v/v).
The assessment of cyclooxygenase activity (both COX I and II) in the presence and absence of the peat bog extracts was based on the quantitation of tlhe radiolabeled arachidonic acid metabolites prostaglandin A2 (PGA2), PGE2, and PGF2-alpha. To do this, a 50 uL sample of each reaction solution was separated via TLC on LK6DF silica plates co-spotted with arachidonic acid, PGA2, and PGF2-alpha and developed in hexane/isopropyl alcohol/ acetic acid (85:15:1 v/v). The bands were visualized by UV-vis or I2 staining and scraped into scintillation vials for quantitation. […] The total enzyme activity (At), the corrected enzyme activity in the presence of an inhibitor (Ai), and % inhibition were calculated by the following equations:
3) Percent Inhibition=100 (1−Ai/ At)

Turning to `CC(C)(c1ccccc1)c1ccc(O)cc1` [4-Cumylphenol, 4-cumylphenol], the “Percent Inhibition of COX II” value at human recombinant COX II (pure 4-cumylphenol, assay as Example 2B, concentration not given) is 22.4%. In addition, in assay [1] (pure 4-cumylphenol, concentration not given), the “Percent Inhibition of 15-LO” value was −40.0%.
As for `COC(=O)[C@]1(C)CCC[C@]2(C)c3ccc(C(C)C)cc3CC[C@@H]12` [Dehydroabietic acid methyl ester, dehydroabietic acid methyl ester], the “inhibited COX II preferentially over COX I by” value at human recombinant COX II (250 uM, difference of percent inhibition COX II versus COX I) was “over 30%”. Also, the “Percent Inhibition of COX II” value at human recombinant COX II (final concentration of 250 uM) was 31.5%. In assay [1] (250 uM), the “increase of the enzymatic activity of 15-LO” value is given as “over 93%”. The “Percent Inhibition of 15-LO” value in assay [1] (final concentration of 250 uM) is −93.6%. The “inhibition of LTB4 production by cultured human keratinocytes” value in assay [2] is recorded as “inhibited the production of LTB4 by cultured human keratinocytes in a dose-dependent manner”.
